The results in this text go back to ChEMBL document CHEMBL1142474, “Structure-activity relationship studies of imidazo[1,2-c]pyrimidine derivatives as potent and orally effective Syk family kinases inhibitors” (Bioorg Med Chem, 2008).

In brackets after ≈: the same amount, converted by molar mass. Activity calls are given as the source filed them. The calls are words filed in the database; no cut-off is given here.

A short description of series [1]: Apparent permeability across human Caco-2 cells. Format: ADME, cell-based.
Another series concerns Blood. Kind of series: Inhibition of IL2 production in PHA-stimulated human whole blood after 24 hrs by ELISA.
The test system of the next series is PBMC. Kind of series: Inhibition of IL2 production in PHA-stimulated human PBMC after 24 hrs by ELISA.
Series [2] relates to Mus musculus. Kind of series: Suppression of concanavalin A-induced IL2 production in po dosed ICR mouse administered 1 hr before concanavalin A challenge relative to control.
In series [3] the test system is Mus musculus. Briefly: Plasma concentration in mouse at 100 mg/kg, po. Format: ADME, organism-based. The arrangement: dose 100 mg/kg, route oral. To be noted: in vivo.
Series [4] concerns Mus musculus. Briefly: Plasma concentration in mouse at 10 mg/kg, po. Format: ADME, organism-based. The arrangement: dose 10 mg/kg, route oral. Conditions: in vivo.
The subject of series [5] is Mus musculus. Kind of series: Plasma concentration in mouse at 30 mg/kg, po. It is filed as ADME, organism-based. The arrangement: dose 30 mg/kg, route oral. To be noted: in vivo.
Series [6] addresses T1, Tyrosine-protein kinase ZAP-70 (Homo sapiens, UniProt P43403).
T1 sequence (P43403 whole entry): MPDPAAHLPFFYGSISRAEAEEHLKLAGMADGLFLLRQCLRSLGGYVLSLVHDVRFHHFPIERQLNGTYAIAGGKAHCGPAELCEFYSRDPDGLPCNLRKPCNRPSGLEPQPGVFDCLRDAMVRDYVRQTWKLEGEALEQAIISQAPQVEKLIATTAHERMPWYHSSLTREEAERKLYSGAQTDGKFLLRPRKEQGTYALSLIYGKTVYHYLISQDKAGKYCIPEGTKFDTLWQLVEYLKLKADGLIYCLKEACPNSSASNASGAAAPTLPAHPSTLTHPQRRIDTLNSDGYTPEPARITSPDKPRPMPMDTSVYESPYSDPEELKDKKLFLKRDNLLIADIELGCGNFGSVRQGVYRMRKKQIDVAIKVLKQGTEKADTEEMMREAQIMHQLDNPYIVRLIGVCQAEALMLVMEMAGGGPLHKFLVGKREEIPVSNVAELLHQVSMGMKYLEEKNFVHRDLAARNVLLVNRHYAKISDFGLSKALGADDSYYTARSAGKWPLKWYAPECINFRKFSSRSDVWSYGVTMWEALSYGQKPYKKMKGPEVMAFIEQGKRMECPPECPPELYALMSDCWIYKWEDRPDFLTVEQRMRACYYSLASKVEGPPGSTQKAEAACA
Kind of series: Inhibition of human ZAP70 expressed in Sf9 cells.

Series [7] concerns the target Tyrosine-protein kinase SYK (Homo sapiens, UniProt P43405).
Description: Inhibition of human Syk expressed in Sf9 cells
For series [8], the system named is Mus musculus. Briefly: Suppression of anti-dinitrophenyl-coupled IgE-induced passive cutaneous anaphylaxis reaction in po dosed ICR mouse administered 1 hr before antigen challenge relative to control. Format: functional, organism-based.
The nature of series [9]: Solubility in water. It is filed as physicochemical.
Series [10] has as its system Mus musculus. Kind of series: Plasma concentration in mouse at 3 mg/kg, po. Format: ADME, organism-based. The arrangement: dose 3 mg/kg, route oral. Conditions: in vivo.

As for `COc1cc(Nc2nc(N[C@H]3CCCC[C@H]3N)n3cc(-c4ccccc4)nc3c2C(N)=O)cc(OC)c1`, in [1], the Papp is 4.3 nm/s. Moreover, the IC50 in the series on Blood was 2 µM; in the series with PBMC it was 0.2 µM.
For `COc1cc(Nc2nc(N[C@H]3CCCC[C@H]3N)n3ncnc3c2C(N)=O)cc(OC)c1`, the Papp in [1] was found to be 3.3 nm/s. Also, the result with Mus musculus [2] was inactive. Also, the IC50 was determined as 0.48 µM in the series on Blood and 0.076 µM with PBMC.
For the compound `COc1cc(Nc2nc(N[C@H]3CCCC[C@H]3N)n3cnnc3c2C(N)=O)cc(OC)c1`, the Cp with Mus musculus [3] amounted to 0.0452 µg/mL; with Mus musculus [4], 0.0284 µg/mL; in the series with Mus musculus [5] it was 0.0265 µg/mL. For the same compound, the Papp in series [1] was determined as 0.1 nm/s. Also, in the series with Mus musculus [2], the result was inactive. For the same compound, the IC50 amounted to 0.44 µM in the series on Blood and 0.046 µM with PBMC.
Turning to `COc1ccccc1Nc1nc(N[C@H]2CCCC[C@H]2N)n2ccnc2c1C(N)=O` (relative stereo), the concentration for half-maximal inhibition (IC50) in series [6] and in series [7] was greater than 10 µM each time.
In the case of `NC(=O)c1c(Nc2cc(F)cc(F)c2)nc(N[C@H]2CCCC[C@H]2N)n2ccnc12` (relative stereo), the IC50 with Blood was found to be 3 µM; in the series on PBMC it was 0.15 µM.
Regarding `Cc1cc(C)cc(Nc2nc(N[C@H]3CCCC[C@H]3N)n3ccnc3c2C(N)=O)c1` (relative stereo), the IC50 with Blood came to 1 µM; with PBMC, 0.2 µM.
With `COc1cc(Nc2nc(N[C@H]3CCCC[C@H]3N)n3ccnc3c2C(N)=O)cc(OC)c1` (relative stereo), the Cp worked out at 4.031 µg/mL with Mus musculus [3], 0.191 µg/mL in the series with Mus musculus [4], 0.77 µg/mL in the series with Mus musculus [5] and 0.04 µg/mL with Mus musculus [10]. Also, the Activity entry with Mus musculus [8] and in the series on Mus musculus [2] was “Dose-dependent effect” each time. The Papp in series [1] came out at 33.3 nm/s. Also, in series [9], the solubility was determined as 0.93 mg/mL (≈ 2190 µM). For the same compound, the values for the IC50 in the series on Blood and in the series on PBMC were 0.28 µM and 0.058 µM, respectively.
Turning to `CN[C@@H]1C[C@H]2O[C@@](C)([C@@H]1OC)n1c3ccccc3c3c4c(c5c6ccccc6n2c5c31)C(=O)NC4` [STAUROSPORINE], the half-maximal inhibitory concentration (IC50) in the series with PBMC was 0.016 µM.
